According to paper PMC4835159 (Journal of Medicinal Chemistry, 2016):
Values after ≈ are worked out from the molar mass of the structure shown. Values joined by “and” are separate entries in the source; they are usually repeats but may differ in a detail not shown here. Equal values may be shown once. Read-outs that look alike come from different tables or passages of the source.

Key:
[1] = target: T1, CYP121 (Mycobacterium tuberculosis, UniProt P9WPP7); type: binding
[2] = target: T1, CYP121; experiment: Single shot UV–vis absorbance assay (Soret band shift, competition with type II inhibitor) on CYP121; type: binding; settings: for shifts in the CYP121 optical spectrum: UV–vis spectroscopy; for Δλmax (change in wavelength of the Soret band): CYP121 5 μM, vs 1% v/v DMSO-d6 alone (λmax = 416.5 nm), single shot
[3] = system: Mtb H37Rv; experiment: Antimycobacterial activity assay (MIC90); type: cell-based, Mycobacterium tuberculosis; design: key to MIC90: “N” indicates that compounds did not produce any significant cell death within the tested concentration range; settings: triplicate, 0–100 μM, 2 weeks
[4] = target: T2, CYP125 (Mycobacterium tuberculosis, UniProt P9WPP1); experiment: Single shot UV–vis binding mode assay on CYP125
T2 sequence (P9WPP1 1-433): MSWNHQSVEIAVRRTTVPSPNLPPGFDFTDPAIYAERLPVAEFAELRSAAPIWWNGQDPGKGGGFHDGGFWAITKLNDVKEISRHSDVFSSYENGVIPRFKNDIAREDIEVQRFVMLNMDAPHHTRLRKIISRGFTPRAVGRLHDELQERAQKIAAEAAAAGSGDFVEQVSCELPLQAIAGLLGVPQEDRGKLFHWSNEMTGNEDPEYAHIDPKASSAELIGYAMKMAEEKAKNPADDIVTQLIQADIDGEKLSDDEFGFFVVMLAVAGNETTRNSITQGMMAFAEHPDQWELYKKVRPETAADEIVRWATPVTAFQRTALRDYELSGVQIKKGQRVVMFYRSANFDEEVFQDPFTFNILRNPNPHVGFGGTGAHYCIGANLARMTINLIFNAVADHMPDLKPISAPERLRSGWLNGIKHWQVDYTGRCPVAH

[5] = target: T3, CYP144TR (Mycobacterium tuberculosis, UniProt P9WPL1)
T3 sequence (P9WPL1 31-434 limits assumed): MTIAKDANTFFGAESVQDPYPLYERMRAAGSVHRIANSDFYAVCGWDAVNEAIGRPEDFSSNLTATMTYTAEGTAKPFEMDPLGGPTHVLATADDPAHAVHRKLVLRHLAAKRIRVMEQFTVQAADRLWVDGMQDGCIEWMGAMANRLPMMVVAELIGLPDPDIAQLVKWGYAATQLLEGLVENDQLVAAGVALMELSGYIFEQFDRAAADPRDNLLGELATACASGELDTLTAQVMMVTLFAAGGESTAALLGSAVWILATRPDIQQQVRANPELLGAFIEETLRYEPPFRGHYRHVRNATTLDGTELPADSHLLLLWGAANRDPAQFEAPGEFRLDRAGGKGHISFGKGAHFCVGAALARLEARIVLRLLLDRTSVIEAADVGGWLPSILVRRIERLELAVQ

[6] = target: T1, CYP121; experiment: Native mass spectrometry of CYP121 with ligands; type: binding
[7] = system: CYP1A (combined CYP1A1 and CYP1A2); experiment: Human P450 inhibition in human liver microsomes, CYP1A (ethoxyresorufin); settings: human, microsomes
[8] = Gibbs free energy of binding to CYP121 divided by number of heavy atoms (ΔG/HA)

T1 sequence (P9WPP7 whole entry): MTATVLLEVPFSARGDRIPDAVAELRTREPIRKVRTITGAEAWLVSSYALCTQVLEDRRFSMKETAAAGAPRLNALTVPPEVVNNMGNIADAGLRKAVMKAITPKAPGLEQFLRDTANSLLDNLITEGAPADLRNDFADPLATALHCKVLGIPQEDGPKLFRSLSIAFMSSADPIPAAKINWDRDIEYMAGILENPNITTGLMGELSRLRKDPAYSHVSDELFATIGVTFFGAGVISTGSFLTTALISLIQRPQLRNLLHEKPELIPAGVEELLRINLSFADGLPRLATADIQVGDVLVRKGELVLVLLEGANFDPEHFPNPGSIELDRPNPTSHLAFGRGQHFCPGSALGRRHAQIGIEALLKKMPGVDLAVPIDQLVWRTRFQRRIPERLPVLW

COc1ccc(-c2cn[nH]c2N)cc1-c1cccc(N)c1 [19c, 4-(3′-Amino-6-methoxy-[1,1′-biphenyl]-3-yl)-1H-pyrazol-5-amine]
LE (ligand efficiency) [1, 8]: 0.27
shifts in the CYP121 optical spectrum [2]: type II shifts

Nc1[nH]ncc1-c1cccc(-c2ccncc2)c1 [18f, 4-(3-(Pyridin-4-yl)phenyl)-1H-pyrazol-5-amine]
Δλmax (change in wavelength of the Soret band) [2]: 1 nm

Oc1ccc(-c2n[nH]c(NCc3cccc4[nH]ncc34)c2-c2ccc(O)cc2)cc1 [26f, 4,4′-(5-(((1H-Indazol-4-yl)methyl)amino)-1H-pyrazole-3,4-diyl)diphenol]
LE (ligand efficiency) [1, 8]: 0.20

Nc1cccc(-c2cc(-c3cn[nH]c3N)ccc2OCc2ccccc2)c1 [19b, 4-(3′-Amino-6-(benzyloxy)-[1,1′-biphenyl]-3-yl)-1H-pyrazol-5-amine]
LE (ligand efficiency) [1, 8]: 0.23
shifts in the CYP121 optical spectrum [2]: type II shifts

Nc1[nH]nc(-c2cccc(F)c2)c1-c1ccc(O)cc1 [14c, 4-(5-Amino-3-(3-fluorophenyl)-1H-pyrazol-4-yl)phenol]
LE (ligand efficiency) [1, 8]: 0.25
MIC90 [3]: N

Nc1[nH]ncc1-c1cccc(-c2ccc3[nH]ccc3c2)c1 [18g, 4-(3-(1H-Indol-5-yl)phenyl)-1H-pyrazol-5-amine]
Δλmax (change in wavelength of the Soret band) [2]: 0 nm

Nc1[nH]ncc1-c1cccc(-c2ccc3cc[nH]c3c2)c1 [18h, 4-(3-(1H-Indol-6-yl)phenyl)-1H-pyrazol-5-amine]
Δλmax (change in wavelength of the Soret band) [2]: 0 nm

Nc1cc(-c2ccc(O)cc2)n[nH]1 [compound 3, 4-(5-Amino-1H-pyrazol-3-yl)phenol]
LE (ligand efficiency) [1, 8]: 0.30

Nc1cccc(-c2cc(-c3c(-c4ccc(O)cc4)n[nH]c3N)ccc2O)c1 [25b, 3′-Amino-5-(5-amino-3-(4-hydroxyphenyl)-1H-pyrazol-4-yl)-[1,1′-biphenyl]-2-ol]
Binding Mode, CYP125 [4]: N
Binding Mode, CYP144TR [5]: N

Nc1[nH]nc(-c2ccc(O)cc2O)c1-c1ccc(O)cc1 [14d, 4-(5-amino-4-(4-hydroxyphenyl)-1H-pyrazol-3-yl)benzene-1,3-diol]
LE (ligand efficiency) [1, 8]: 0.24

O=C(Nc1[nH]nc(-c2ccc(O)cc2)c1-c1ccc(O)cc1)c1ccncc1 [29c, N-(3,4-Bis(4-hydroxyphenyl)-1H-pyrazol-5-yl)isonicotinamide]
LE (ligand efficiency) [1, 8]: 0.16
MIC90 [3]: N

O=C(Nc1[nH]nc(-c2ccc(O)cc2)c1-c1ccc(O)cc1)c1ccc(O)cc1 [29b, N-(3,4-Bis(4-hydroxyphenyl)-1H-pyrazol-5-yl)-4-hydroxybenzamide]
LE (ligand efficiency) [1, 8]: 0.19

Nc1cccc(-c2cccc(-c3cn[nH]c3N)c2)c1 [19a, 4-(3′-Amino-[1,1′-biphenyl]-3-yl)-1H-pyrazol-5-amine]
LE (ligand efficiency) [1]: 0.35
MIC90 [3]: N
Monomer (%) of CYP121 ([6]; Protein-Ligand Ratio 1:0.5): 23%
ligand binding stoichiometry, CYP121 Dimer ([6]; Protein-Ligand Ratio 1:0.5): 0
ligand binding stoichiometry, CYP121 Monomer ([6]; Protein-Ligand Ratio 1:0.5): 0
Monomer (%) of CYP121 ([6]; Protein-Ligand Ratio 1:1): 28%
ligand binding stoichiometry, CYP121 Dimer ([6]; Protein-Ligand Ratio 1:1): 0
ligand binding stoichiometry, CYP121 Monomer ([6]; Protein-Ligand Ratio 1:1): 0
Monomer (%) of CYP121 ([6]; Protein-Ligand Ratio 1:25): 33%
ligand binding stoichiometry, CYP121 Dimer ([6]; Protein-Ligand Ratio 1:25): 2
ligand binding stoichiometry, CYP121 Monomer ([6]; Protein-Ligand Ratio 1:25): 1

Nc1[nH]ncc1-c1ccc(O)cc1 [compound 4, 4-(5-amino-1H-pyrazol-4-yl)phenol]
LE (ligand efficiency) [1, 8]: 0.29

Cc1ccc2cc(N)ccc2n1 [compound 9]
LE (ligand efficiency) [1, 8]: 0.39

Oc1ccc(-c2n[nH]c(NCc3ccc4[nH]ccc4c3)c2-c2ccc(O)cc2)cc1 [26e, 4,4′-(5-(((1H-Indol-5-yl)methyl)amino)-1H-pyrazole-3,4-diyl)diphenol]
LE (ligand efficiency) [1, 8]: 0.19

Oc1ccc(-c2n[nH]c(NCc3ccsc3)c2-c2ccc(O)cc2)cc1 [26c, 4,4′-(5-((Thiophen-3-ylmethyl)amino)-1H-pyrazole-3,4-diyl)diphenol]
LE (ligand efficiency) [1, 8]: 0.25

Oc1ccc(Nc2cc(-c3ccc(O)cc3)n[nH]2)cc1 [compound 6, 4-((3-(4-Hydroxyphenyl)-1H-pyrazol-5-yl)amino)phenol]
LE (ligand efficiency) [1, 8]: 0.34
Monomer (%) of CYP121 ([6]; Protein-Ligand Ratio 1:0.5): 11%
ligand binding stoichiometry, CYP121 Dimer ([6]; Protein-Ligand Ratio 1:0.5): 0
ligand binding stoichiometry, CYP121 Monomer ([6]; Protein-Ligand Ratio 1:0.5): 0
Monomer (%) of CYP121 ([6]; Protein-Ligand Ratio 1:1): 26%
ligand binding stoichiometry, CYP121 Dimer ([6]; Protein-Ligand Ratio 1:1): 0
ligand binding stoichiometry, CYP121 Monomer ([6]; Protein-Ligand Ratio 1:1): 0
Monomer (%) of CYP121 ([6]; Protein-Ligand Ratio 1:25): 12%
ligand binding stoichiometry, CYP121 Dimer ([6]; Protein-Ligand Ratio 1:25): 1
ligand binding stoichiometry, CYP121 Monomer ([6]; Protein-Ligand Ratio 1:25): 1

Oc1ccc(-c2n[nH]c(NCc3ccncc3)c2-c2ccc(O)cc2)cc1 [26g, 4,4′-(5-((Pyridin-4-ylmethyl)amino)-1H-pyrazole-3,4-diyl)diphenol]
LE (ligand efficiency) [1, 8]: 0.18

Oc1ccc(-c2n[nH]c(NCc3ccc(O)c(Br)c3)c2-c2ccc(O)cc2)cc1 [26b, 4,4′-(5-((3-Bromo-4-hydroxybenzyl)amino)-1H-pyrazole-3,4-diyl)diphenol]
LE (ligand efficiency) [1, 8]: 0.22

Oc1ccc(-c2n[nH]c(NCc3c[nH]cn3)c2-c2ccc(O)cc2)cc1 [26h, 4,4′-(5-(((1H-Imidazol-4-yl)methyl)amino)-1H-pyrazole-3,4-diyl)diphenol]
LE (ligand efficiency) [1, 8]: 0.19
Δλmax (type II shift) ([2]; ligand 100 μM, CYP121): +1.5 nm

O=c1cc(-c2ccccc2)oc2c1ccc1ccccc12 [alpha-naphthoflavone, reference compound]
IC50 [7]: 59.7 nM

Nc1[nH]ncc1-c1cccc(-c2cn[nH]c2)c1 [18i, 4-(3-(1H-Pyrazol-4-yl)phenyl)-1H-pyrazol-5-amine]
Δλmax (change in wavelength of the Soret band) [2]: 0 nm

Nc1cccc(Cn2cncn2)c1 [compound 8]
LE (ligand efficiency) [1, 8]: 0.29

O=C(Nc1[nH]nc(-c2ccc(O)cc2)c1-c1ccc(O)cc1)c1ccccc1 [29a, N-(3,4-Bis(4-hydroxyphenyl)-1H-pyrazol-5-yl)benzamide]
LE (ligand efficiency) [1, 8]: 0.18

Oc1ccc(Nc2[nH]nc(-c3ccc(O)cc3)c2-c2ccc(O)cc2)cc1 [compound 2, 4,4'-(5-((4-hydroxyphenyl)amino)-1H-pyrazole-3,4-diyl)diphenol]
LE (ligand efficiency) [1, 8]: 0.24 and 0.23

Nc1[nH]ncc1-c1cccc(-c2cccnc2)c1 [18e, 4-(3-(Pyridin-3-yl)phenyl)-1H-pyrazol-5-amine]
Δλmax (change in wavelength of the Soret band) [2]: 0 nm

Nc1[nH]nc(-c2cccc(O)c2)c1-c1ccc(O)cc1 [14b, 3-(5-Amino-4-(4-hydroxyphenyl)-1H-pyrazol-3-yl)phenol]
LE (ligand efficiency) [1, 8]: 0.29

CO[C@H]1/C=C/O[C@@]2(C)Oc3c(C)c(O)c4c(O)c(c(/C=N/N5CCN(C)CC5)c(O)c4c3C2=O)NC(=O)/C(C)=C\C=C\[C@H](C)[C@H](O)[C@@H](C)[C@@H](O)[C@@H](C)[C@H](OC(C)=O)[C@@H]1C [Rifampicin, reference compound]
MIC ([3]; Mycobacterium tuberculosis, 336 h): 0.75 µM (≈ 0.617 µg/mL)

Oc1ccc(-c2n[nH]c(NCc3ccco3)c2-c2ccc(O)cc2)cc1 [26d, 4,4′-(5-((Furan-2-ylmethyl)amino)-1H-pyrazole-3,4-diyl)diphenol]
LE (ligand efficiency) [1, 8]: 0.24

NC(=O)c1cc(Cl)ccc1N [compound 7]
LE (ligand efficiency) [1, 8]: 0.30

COc1ccc(-c2n[nH]c(N)c2-c2cccc(-c3cccc(N)c3)c2)cc1 [24a, 4-(3′-Amino-[1,1′-biphenyl]-3-yl)-3-(4-methoxyphenyl)-1H-pyrazol-5-amine]
LE (ligand efficiency) [1, 8]: 0.38
shifts in the CYP121 optical spectrum [2]: type II shifts
MIC90 ([3]; Mycobacterium tuberculosis, 336 h, read-out: MIC90): 50 µM (≈ 17.8 µg/mL)
Monomer (%) of CYP121 ([6]; Protein-Ligand Ratio 1:0.5): 19%
ligand binding stoichiometry, CYP121 Dimer ([6]; Protein-Ligand Ratio 1:0.5): 1
ligand binding stoichiometry, CYP121 Monomer ([6]; Protein-Ligand Ratio 1:0.5): 0
Monomer (%) of CYP121 ([6]; Protein-Ligand Ratio 1:1): 16%
ligand binding stoichiometry, CYP121 Dimer ([6]; Protein-Ligand Ratio 1:1): 1
ligand binding stoichiometry, CYP121 Monomer ([6]; Protein-Ligand Ratio 1:1): 1
Monomer (%) of CYP121 ([6]; Protein-Ligand Ratio 1:25): 16%
ligand binding stoichiometry, CYP121 Dimer ([6]; Protein-Ligand Ratio 1:25): 2
ligand binding stoichiometry, CYP121 Monomer ([6]; Protein-Ligand Ratio 1:25): 1
